The experiment deals with differentiated GFP-ATXN1[82Q] SHSY5Y cells. Put plainly: Oxyblot of S100B induced oxidized proteins. Format: cell-based. As to conditions: 50 μM pretreatment 1 hr, then 5 μM S100B 2 hrs; oxidized protein/β-tubulin. The protocol: FIG. 16: (a) GFP-ATXN1[82Q] and (b) GFP-ATXN1[30Q] SHSY5Y stable cells were placed on 12-well plates and subjected to treatment with 25 nM TPA for 3 days to produce differentiated SHSY5Y cell lines. Next, the cells were pretreated with 50 μM Synb1-ELP-TRTK for 1 hr then treated with 5 μM S100B for 2 hrs or treated with 150 μM H2O2 for 2 hrs, where control cells were treated with serum free media for 3 hrs. Then the cells were lysed and analyzed with the Oxyblot kit and a β-tubulin antibody. Shown is the resulting oxyblot/western blot data. (c) Optical densities of the protein bands were taken using ImageJ software. Graphs shown the ratio of oxidized protein/β-tubulin protein normalized to the control. Statistics were taken using the student's t-test. * GFP-ATXN1[82Q]: S100B vs Synb1-ELP-TRTK+S100B, P<0.05. ψ GFP-ATXN1[82Q]: H2O2 vs GFP-ATXN1[30Q]: H2O2, P<0.05.
GFP-ATXN1[82Q] or GFP-ATXN1[30Q] stable cells were placed on 12-well plates at a concentration of 60,000 cells per well. Cells were treated with 25 nM TPA for 3 days to produce differentiated SHSY5Y cell lines. […] Cell lysates were analyzed with the Oxyblot kit according to manufacturer's protocol ([…]) and with a β-tubulin antibody (Sigma), where 5 μgs of protein was loaded in each well of 4-20% acrylamide gel (Bio-Rad Laboratories, Hercules, Calif., USA). […]

In the case of “Synb1-ELP-TRTK: thermally responsive S100B inhibitory polypeptide: Synb1 cell penetrating peptide, elastin-like polypeptide (ELP) and TRTK12 peptide fused”, the “S100B's impact on the level of oxidized proteins” value is “significantly blocked”.

The record behind these values is patent US9259432B1, “Composition and methods for targeted delivery of a therapeutic compound to the brain or spinal cord of a subject for treatment of neurodegenerative diseases” (Parminder J. S. Vig, priority 2011, dated 2016).
